Data reported in US7749996B2, “Heterotricyclic metalloprotease inhibitors” (Alantos Pharmaceutical Holdings, Inc., priority 2006, dated 2010).

Experiments:
Assay type in all cases: biochemical
activated MMP-8 enzyme = target: T1, activated MMP-8 enzyme (Homo sapiens, UniProt P22894); assay: Assay for determining MMP-8 inhibition (fluorescent substrate); settings: Table 2, activity group
T1 construct: purchased Calbiochem 444229
Protocol: (§1) The typical assay for MMP-8 activity is carried out in assay buffer comprised of 50 mM Tris, pH 7.5, 150 mM NaCl, 5 mM CaCl2 and 0.05% Brij-35. Different concentrations of tested compounds are prepared in assay buffer in 50 μL aliquots. […] The mixture of enzyme and compound in assay buffer is thoroughly mixed and incubated for 10 min at 37° C. […] The time-dependent increase in fluorescence is measured at the 320 nm excitation and 390 nm emission by an automatic plate multireader at 37° C. The IC50 values are calculated from the initial reaction rates.

[1] = target: T2, catalytic domain of MMP-13 enzyme (Homo sapiens, UniProt P45452); assay: Assay for determining MMP-13 inhibition (fluorescent substrate); settings: Table 1, activity group
T2 construct: stock solution of catalytic domain of MMP-13 enzyme (produced by Alantos or commercially available from Invitek (Berlin), Cat.# 30100812); purchased Invitek (Berlin) 30100812
Protocol: as §1, with “MMP-13” for “MMP-8”, “room temperature.” for “37° C.”, “by” for “by an”, “multireader.” for “multireader at 37° C.”

[2] = target: T3, catalytic domain of MMP-3 enzyme (Homo sapiens, UniProt P08254); assay: Assay for determining MMP-3 inhibition (NFF-3 fluorescent substrate); settings: Table 3, activity group
T3 construct: stock solution of the catalytic domain of MMP-3 enzyme (Biomol, Cat. No. SE-109); purchased Biomol SE-109
T3 sequence (P08254 100-272 limits assumed): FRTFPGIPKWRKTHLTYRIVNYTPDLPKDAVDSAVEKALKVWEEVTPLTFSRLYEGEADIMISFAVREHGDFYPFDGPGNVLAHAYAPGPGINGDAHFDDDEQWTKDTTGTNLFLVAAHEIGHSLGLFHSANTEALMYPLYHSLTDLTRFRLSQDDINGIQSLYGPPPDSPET
Protocol: as §1, with “MMP-3” for “MMP-8”, “MES,” for “Tris,”, “6.0, 10” for “7.5, 150 mM NaCl, 5”, “room temperature.” for “37° C.”, “330” for “320”, “multireader.” for “multireader at 37° C.”

T1 sequence (P22894 101-467): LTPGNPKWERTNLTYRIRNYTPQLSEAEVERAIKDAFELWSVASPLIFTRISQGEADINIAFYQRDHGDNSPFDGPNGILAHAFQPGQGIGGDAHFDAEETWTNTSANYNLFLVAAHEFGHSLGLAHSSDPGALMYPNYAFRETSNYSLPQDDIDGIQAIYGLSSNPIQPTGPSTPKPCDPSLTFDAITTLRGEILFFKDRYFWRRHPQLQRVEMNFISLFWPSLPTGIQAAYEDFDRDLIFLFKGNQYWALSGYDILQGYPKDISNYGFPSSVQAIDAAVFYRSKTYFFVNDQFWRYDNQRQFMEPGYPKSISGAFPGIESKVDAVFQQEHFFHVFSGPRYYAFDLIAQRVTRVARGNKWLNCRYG

SMILES	IC50 (activated MMP-8 enzyme) [nM]	IC50 [1] [nM]	IC50 [2] [µM]
O=C(NCc1cccc(F)c1)c1nc2sc3c(c2c(=O)[nH]1)CCC3 [2/292]	250 to 20000	100 to 20000	
O=C1COc2ccc(CNC(=O)c3nc4sc5c(c4c(=O)[nH]3)CN(Cc3ccccc3)C5)cc2N1 [Example 43/1]	< 250		
O=C1COc2ccc(CNC(=O)c3nc4sc5c(c4c(=O)[nH]3)CCCSC5)cc2N1 [Example 2/218]	< 250		
Nc1c(NCc2cccc(CNC(=O)c3nc4sc5c(c4c(=O)[nH]3)CCC5)c2)c(=O)c1=O [2/413]	< 250	< 100	
COC(=O)c1ccc(CNC(=O)C2CCc3sc4nc(C(=O)NCc5ccc6c(c5)NC(=O)CO6)[nH]c(=O)c4c32)cc1 (centres unmarked) [2/169]	< 250	< 100	
Nc1c(N2CCc3ccc(CNC(=O)c4nc5sc6c(c5c(=O)[nH]4)CCC6)cc3C2)c(=O)c1=O [2/52]	< 250	< 100	
CC1SCc2sc3nc(C(=O)NCc4ccc5c(c4)NC(=O)CO5)[nH]c(=O)c3c21 (centres unmarked) [2/131]	< 250	< 100	
Cc1cccc(CNC(=O)c2nc3sc4c(c3c(=O)[nH]2)CCC4)c1 [2/383]	250 to 20000	100 to 20000	
CC(NC(=O)C1CCc2sc3nc(C(=O)NCc4ccc5c(c4)NC(=O)CO5)[nH]c(=O)c3c21)c1ccccc1 (centres unmarked) [2/175]	< 250	< 100	
O=C(NCc1ccc(F)cc1)c1nc2sc3c(c2c(=O)[nH]1)CCC3 [2/290]	250 to 20000	< 100	
O=C1COc2ccc(CNC(=O)c3nc4sc5c(c4c(=O)[nH]3)CCS5)cc2N1 [2/121]	< 250	< 100	
O=C1COc2ccc(CNC(=O)c3nc4sc5c(c4c(=O)[nH]3)CNC5)cc2N1 [Example 41]	250 to 20000	< 100	
O=C1COc2ccc(CNC(=O)c3nc4sc5c(c4c(=O)[nH]3)CCCCC5)cc2N1 [2/117]	< 250	< 100	
O=C1COc2ccc(CNC(=O)c3nc4cc5ccccc5cc4c(=O)[nH]3)cc2N1 [39/20]	250 to 20000	100 to 20000	
O=C(NCc1cccc(N2CCOCC2)c1)c1nc2sc3c(c2c(=O)[nH]1)CCC3 [2/529]	250 to 20000		
CCNC(=O)CC1CCCc2sc3nc(C(=O)NCc4ccc5c(c4)NC(=O)CO5)[nH]c(=O)c3c21 (centres unmarked) [2/269]	< 250		
CC(=O)N1Cc2sc3nc(C(=O)NCc4ccc5c(c4)NC(=O)CO5)[nH]c(=O)c3c2C1 [Example 42]	250 to 20000		
CCOC(=O)C1CCc2sc3nc(C(=O)NCc4ccc5c(c4)NC(=O)CO5)[nH]c(=O)c3c21 (centres unmarked) [2/113]	< 250	< 100	
O=C(NCc1cccc(N2CCSCC2)c1)c1nc2sc3c(c2c(=O)[nH]1)CCC3 [2/528]	250 to 20000	< 100	
O=C1COc2ccc(CNC(=O)c3nc4sc5c(c4c(=O)[nH]3)CCCCCC5)cc2N1 [2/125]	< 250	< 100	

SMILES	IC50 (activated MMP-8 enzyme) [nM]	IC50 [1] [nM]	IC50 [2] [µM]
O=C1COc2ccc(CNC(=O)c3nc4sc5c(c4c(=O)[nH]3)C(C(=O)NCc3ccccc3)CC5)cc2N1 (centres unmarked) [2/167]	< 250	< 100	
COc1cccc(CNC(=O)c2nc3sc4c(c3c(=O)[nH]2)CCC4)c1 [2/387]	250 to 20000		
Nc1c(N2CCc3ccc(CNC(=O)c4nc5sc6c(c5c(=O)[nH]4)CCOC6)cc3C2)c(=O)c1=O [2/153]	< 250	< 100	
CS(=O)(=O)c1ccc(CNC(=O)C2CCc3sc4nc(C(=O)NCc5ccc6c(c5)NC(=O)CO6)[nH]c(=O)c4c32)cc1 (centres unmarked) [2/170]	< 250	< 100	
Cc1cc(CNC(=O)c2nc3sc4c(c3c(=O)[nH]2)CCS(=O)(=O)C4)ccc1F [2/130]	250 to 20000	100 to 20000	
O=C1COc2ccc(CNC(=O)c3nc4sc5c(c4c(=O)[nH]3)CCOC5)cc2N1 [2/152]	< 250	< 100	
NC(=O)CNC(=O)C1CCc2sc3nc(C(=O)NCc4ccc5c(c4)NC(=O)CO5)[nH]c(=O)c3c21 (centres unmarked) [2/255]	< 250	< 100	
C#CCNC(=O)C1CCc2sc3nc(C(=O)NCc4ccc5c(c4)NC(=O)CO5)[nH]c(=O)c3c21 (centres unmarked) [2/223]	< 250		
O=C1COc2ccc(CNC(=O)c3nc4sc5c(c4c(=O)[nH]3)CCCC5)cc2N1 [2/33]	< 250	< 100	
CC(C)(C)OC(=O)CNC(=O)C1CCc2sc3nc(C(=O)NCc4ccc5c(c4)NC(=O)CO5)[nH]c(=O)c3c21 (centres unmarked) [2/224]	< 250	< 100	
CCOC(=O)C1CCc2sc3nc(C(=O)NCc4ccc5c(c4)CN(c4c(N)c(=O)c4=O)CC5)[nH]c(=O)c3c21 (centres unmarked) [2/114]	< 250	< 100	
CC(=O)N1CCc2c(sc3nc(C(=O)NCc4ccc5c(c4)NC(=O)CO5)[nH]c(=O)c23)C1 [2/94]	< 250	< 100	
Cc1cc(CNC(=O)c2nc3sc4c(c3c(=O)[nH]2)CCC4)ccc1F [2/313]	< 250	< 100	
NC(=O)C1CCCCc2sc3nc(C(=O)NCc4ccc5c(c4)NC(=O)CO5)[nH]c(=O)c3c21 (centres unmarked) [2/267]	< 250	< 100	
CN(C)C(=O)C1CCc2sc3nc(C(=O)NCc4ccc5c(c4)NC(=O)CO5)[nH]c(=O)c3c21 (centres unmarked) [2/173]	250 to 20000	< 100	
CCOC(=O)CC1CCCc2sc3nc(C(=O)NCc4ccc5c(c4)NC(=O)CO5)[nH]c(=O)c3c21 (centres unmarked) [2/236]			0.25 to 20
O=C(NCc1ccc(F)c(Cl)c1)c1nc2sc3c(c2c(=O)[nH]1)CCC3 [2/433]	250 to 20000	100 to 20000	
CS(=O)(=O)N1CCc2ccc(CNC(=O)c3nc4sc5c(c4c(=O)[nH]3)CCC5)cc2C1 [2/538]	250 to 20000	100 to 20000	
O=C(NCc1ccc2c(c1)OCCO2)c1nc2sc3c(c2c(=O)[nH]1)CCC3 [2/428]	250 to 20000	100 to 20000	
COC(=O)C1Cc2sc3nc(C(=O)NCc4ccc5c(c4)CN(c4c(N)c(=O)c4=O)CC5)[nH]c(=O)c3c2C1 (centres unmarked) [2/230]	< 250		

SMILES	IC50 (activated MMP-8 enzyme) [nM]	IC50 [1] [nM]	IC50 [2] [µM]
Nc1c(NCc2cc(CNC(=O)c3nc4sc5c(c4c(=O)[nH]3)CCC5)ccc2F)c(=O)c1=O [2/417]	250 to 20000	< 100	
Nc1c(N2CCc3ccc(CNC(=O)c4nc5sc6c(c5c(=O)[nH]4)CCCCCC6)cc3C2)c(=O)c1=O [2/126]	< 250	< 100	
C#CCNC(=O)CC1CCCc2sc3nc(C(=O)NCc4ccc5c(c4)NC(=O)CO5)[nH]c(=O)c3c21 (centres unmarked) [2/251]	< 250	< 100	
O=C1COc2ccc(CNC(=O)c3nc4sc5c(c4c(=O)[nH]3)CCNCC5)cc2N1 [15/3]	250 to 20000		
O=C1COc2ccc(CNC(=O)c3nc4sc5c(c4c(=O)[nH]3)CCC5)cc2N1 [Example 1]	< 250	< 100	
Nc1c(N2CCc3ccc(CNC(=O)c4nc5sc6c(c5c(=O)[nH]4)CCS6)cc3C2)c(=O)c1=O [2/122]	< 250	< 100	
O=C(NCc1ccc2c(c1)OCO2)c1nc2sc3c(c2c(=O)[nH]1)CCC3 [2/382]	250 to 20000		
Cc1cc(CNC(=O)C2CCc3sc4nc(C(=O)NCc5ccc6c(c5)NC(=O)CO6)[nH]c(=O)c4c32)ccc1F (centres unmarked) [2/176]	< 250	< 100	
O=C1COc2ccc(CNC(=O)c3nc4sc5ccccc5c4c(=O)[nH]3)cc2N1 [2/25]	< 250	< 100	
Cc1ccc(CNC(=O)C2CCc3sc4nc(C(=O)NCc5ccc6c(c5)NC(=O)CO6)[nH]c(=O)c4c32)cc1 (centres unmarked) [2/174]	< 250	< 100	
COc1ccc(CNC(=O)c2nc3sc4c(c3c(=O)[nH]2)CCC4)cc1 [2/384]	250 to 20000	100 to 20000	
COc1cccc(CNC(=O)c2nc3sc4c(c3c(=O)[nH]2)CCS(=O)(=O)C4)c1 [2/129]	250 to 20000	< 100	
O=C(NC(c1ccccc1)c1ccccn1)c1nc2sc3c(c2c(=O)[nH]1)CCC3 (centres unmarked) [2/328]		100 to 20000	
Nc1c(N2CCc3ccc(CNC(=O)c4nc5sc6c(c5c(=O)[nH]4)CCCCC6)cc3C2)c(=O)c1=O [2/118]	< 250	< 100	
Nc1c(N2CCc3ccc(CNC(=O)c4nc5sc6c(c5c(=O)[nH]4)CC(C(=O)O)C6)cc3C2)c(=O)c1=O (centres unmarked) [4/14]	< 250	< 100	
Nc1c(N2CCc3ccc(CNC(=O)c4nc5sc6c(c5c(=O)[nH]4)CCCSC6)cc3C2)c(=O)c1=O [2/219]		< 100	
O=C(NCc1csc2ccccc12)c1nc2sc3c(c2c(=O)[nH]1)CCC3 [2/333]		100 to 20000	
NC(=O)C1CCc2sc3nc(C(=O)NCc4ccc5c(c4)NC(=O)CO5)[nH]c(=O)c3c21 (centres unmarked) [Example 2/166]	< 250	< 100	
COC(=O)c1cccc(CNC(=O)c2nc3sc4c(c3c(=O)[nH]2)CCC4)c1 [2/316]	250 to 20000	< 100	
